Measurements: US7161031B2, “Amino-substituted sulfonanilides and derivatives thereof for treating proliferative disorders” (Temple University - Of The Commonwealth System of Higher …, priority 2002, dated 2007)

What was measured:
Experiment in all cases: Tumor cell killing, viable cell count by trypan blue exclusion
Format in all cases: cell-based
DLD1 tumor cell line = conditions: DLD1 cells, viable cells counted 96 hours after treatment
Procedure: (§1) The effect of the amino-substituted sulfonanilides on normal fibroblasts and on tumor cells may be determined by the assay described by Latham et al., Oncogene 12:827–837 (1996). Normal diploid lung human fibroblasts (HFL-1) or tumor cells (e.g., prostate, colorectal, breast, glial, pancreatic, ovarian, lung or leukemic) are plated in 6-well dishes at a cell density of 1.0×10^5 cells per […]. The plated cells are treated 24 hours later with various concentrations of amino-substituted sulfonanilide dissolved in dimethyl sulfoxide (DMSO). The total number of viable cells is determined 96 hours later by trypsinizing the wells and counting the number of viable cells, as determined by trypan blue exclusion, using a hemacytometer. Normal HFL cells are treated with the same compounds under the same conditions of concentration and time. Biological data for compounds of the present invention is shown in Table 5 below in DU145, BT20, DLD1 and H157 tumor cell lines.

H157 tumor cell line = conditions: H157 cells, viable cells counted 96 hours after treatment
Procedure: as §1

DU145 tumor cell line = conditions: DU145 cells, viable cells counted 96 hours after treatment
Procedure: as §1

BT20 tumor cell line = conditions: BT20 cells, viable cells counted 96 hours after treatment
Procedure: as §1

Compound | tumor cell killing activity DLD1 (DLD1 tumor cell line) | tumor cell killing activity H157 (H157 tumor cell line) | tumor cell killing activity DU145 (DU145 tumor cell line) | tumor cell killing activity BT20 (BT20 tumor cell line)
COc1cc(OC)c(/C=C/S(=O)(=O)Nc2ccc(OC)c(NCC(=O)O)c2)c(OC)c1 [Example 5, (E)-2,4,6-Trimethoxystyryl-N-[(3-carboxymethylamino)-4-methoxyphenyl]sulfonamide] | + (A (+) in the table indicates that the compound showed tumor cell killing activity at a concentration of less than 20 micromolar) | + (A (+) in the table indicates that the compound showed tumor cell killing activity at a concentration of less than 20 micromolar) | + (A (+) in the table indicates that the compound showed tumor cell killing activity at a concentration of less than 20 micromolar) | + (A (+) in the table indicates that the compound showed tumor cell killing activity at a concentration of less than 20 micromolar)
(E)-2,4,6-Trimethoxystyryl-N-[(3-amino)-4-methoxyphenyl]-sulfonamide-L-lysineamide hydrochloride [Example 3] | + (A (+) in the table indicates that the compound showed tumor cell killing activity at a concentration of less than 20 micromolar) | + (A (+) in the table indicates that the compound showed tumor cell killing activity at a concentration of less than 20 micromolar) | + (A (+) in the table indicates that the compound showed tumor cell killing activity at a concentration of less than 20 micromolar) | + (A (+) in the table indicates that the compound showed tumor cell killing activity at a concentration of less than 20 micromolar)
COc1cc(OC)c(/C=C/S(=O)(=O)Nc2ccc(OC)c(NC(=O)CN3CCN(C)CC3)c2)c(OC)c1 [Example 8, (E)-2,4,6-Trimethoxystyryl-N-[3-(4-methylpiperazinyl)-acetamido-4-methoxyphenyl]sulfonamide] | + (A (+) in the table indicates that the compound showed tumor cell killing activity at a concentration of less than 20 micromolar) | + (A (+) in the table indicates that the compound showed tumor cell killing activity at a concentration of less than 20 micromolar) | + (A (+) in the table indicates that the compound showed tumor cell killing activity at a concentration of less than 20 micromolar) | + (A (+) in the table indicates that the compound showed tumor cell killing activity at a concentration of less than 20 micromolar)
COc1cc(OC)c(/C=C/S(=O)(=O)Nc2ccc(OC)c(NCC(=O)N(C)C)c2)c(OC)c1 [Example 1, (E)-2,4,6-Trimethoxystyryl-N-[(3-N,N-dimethylacetamido)-4-methoxyphenyl]sulfonamide] | + (A (+) in the table indicates that the compound showed tumor cell killing activity at a concentration of less than 20 micromolar) | + (A (+) in the table indicates that the compound showed tumor cell killing activity at a concentration of less than 20 micromolar) | + (A (+) in the table indicates that the compound showed tumor cell killing activity at a concentration of less than 20 micromolar) | + (A (+) in the table indicates that the compound showed tumor cell killing activity at a concentration of less than 20 micromolar)
COc1cc(OC)c(/C=C/S(=O)(=O)Nc2ccc(OC)c(NC(C)=O)c2)c(OC)c1 [Example 2, (E)-2,4,6-Trimethoxystyryl-N-[(3-acetamido)4-methoxyphenyl]-sulfonamide] | + (A (+) in the table indicates that the compound showed tumor cell killing activity at a concentration of less than 20 micromolar) | + (A (+) in the table indicates that the compound showed tumor cell killing activity at a concentration of less than 20 micromolar) | + (A (+) in the table indicates that the compound showed tumor cell killing activity at a concentration of less than 20 micromolar) | + (A (+) in the table indicates that the compound showed tumor cell killing activity at a concentration of less than 20 micromolar)
COc1cc(OC)c(/C=C/S(=O)(=O)Nc2ccc(OC)c(NC(=O)CCl)c2)c(OC)c1 [Example 7, (E)-2,4,6-Trimethoxystyryl-N-[(3-chloroacetamido)-4-methoxyphenyl]-sulfonamide] | + (A (+) in the table indicates that the compound showed tumor cell killing activity at a concentration of less than 20 micromolar) | + (A (+) in the table indicates that the compound showed tumor cell killing activity at a concentration of less than 20 micromolar) | + (A (+) in the table indicates that the compound showed tumor cell killing activity at a concentration of less than 20 micromolar) | + (A (+) in the table indicates that the compound showed tumor cell killing activity at a concentration of less than 20 micromolar)
COc1cc(OC)c(/C=C/S(=O)(=O)Nc2ccc(OC)c(NC(=O)CO)c2)c(OC)c1 [Example 6, (E)-2,4,6-Trimethoxystyryl-N-[(3-hydroxyacetamido)-4-methoxy-phenyl]sulfonamide] | + (A (+) in the table indicates that the compound showed tumor cell killing activity at a concentration of less than 20 micromolar) | + (A (+) in the table indicates that the compound showed tumor cell killing activity at a concentration of less than 20 micromolar) | + (A (+) in the table indicates that the compound showed tumor cell killing activity at a concentration of less than 20 micromolar) | + (A (+) in the table indicates that the compound showed tumor cell killing activity at a concentration of less than 20 micromolar)
COc1cc(OC)c(/C=C/S(=O)(=O)Nc2ccc(OC)c(NC(=O)COC(C)=O)c2)c(OC)c1 [Example 4, (E)-2,4,6-Trimethoxystyryl-N-[(3-acetoxyacetamido)-4-methoxy-phenyl]sulfonamide] | + (A (+) in the table indicates that the compound showed tumor cell killing activity at a concentration of less than 20 micromolar) | + (A (+) in the table indicates that the compound showed tumor cell killing activity at a concentration of less than 20 micromolar) | + (A (+) in the table indicates that the compound showed tumor cell killing activity at a concentration of less than 20 micromolar) | + (A (+) in the table indicates that the compound showed tumor cell killing activity at a concentration of less than 20 micromolar)
